In series [1] the test system is myelomonocytic chicken cell line HD11-C3. Also noted: method as in PMID 23501116. The conditions noted are these: read-out: IC50 cytotoxic activity; cited from earlier work.
For series [2], the system named is NF-κB p65. Also noted: method as in PMID 22685350. The conditions noted are these: read-out: concentration inhibiting NF-κB p65; cited from earlier work.
Series [3] concerns HT-29 cells. Also noted: method as in PMID 29350920. To be noted: cited from earlier work.
The test system of series [4] is NF-κB. The arrangement: method as in PMID 25621077. The conditions noted are these: HT-29; cited from earlier work.
Series [5] concerns c-Myb-dependent gene expression. Also noted: method as in PMID 23501116. To be noted: read-out: IC50 inhibition of c-Myb-dependent gene expression; cited from earlier work.
Series [6] concerns HS-5 cells. Put plainly: Proliferation, [3H]-thymidine uptake, non-malignant HS-5. Type of series: cell-based. To be noted: HS5; HS-5 (non-malignant), 72 h, 95% confidence interval in brackets; read-out: IC50 inhibition of proliferation. The method, then:
(§1) Acute myeloid leukemia cell line HL-60 and multiple myeloma cell lines AMO-1 and KMS-12-PE were obtained from the German Collection of Microorganisms and Cell Cultures (DSMZ), Braunschweig, Germany, and non-tumorigenic stromal cell line HS-5 was acquired from the American Type Culture Collection (ATCC, Manassas, VA, USA). All cell lines were cultured in RPMI 1640 medium without phenol red (Pan Biotech, Aidenbach, Germany), supplemented with 2 mM glutamine, 100 U/mL penicillin, 100 µg/mL streptomycin (Sigma-Aldrich, St. Louis, MO, USA), and 10% fetal bovine serum (FBS Maximus, Catus Biotech GmbH, Tutzing, Germany) at 37 °C in a humidified atmosphere of 5% CO2/95% air. Cells were fed twice weekly. Logarithmically growing cells were resuspended at 1 × 10^5 cells/mL, plated in triplicate in round-bottom 96-well plates (100 µL per well; Falcon, Becton Dickinson, Franklin Lakes, NJ, USA), and incubated at 37 °C in 5% CO2/95% air for 2 h. […] Cell proliferation was assessed by [^3H]-thymidine uptake. […] Cells were harvested using a semi-automated device, and [^3H]-thymidine incorporation (expressed in counts per minute, cpm) was measured with a scintillation counter (MicroBeta TriLux, PerkinElmer, Waltham, MA, USA). Metabolic activity was assessed by resazurin staining. […] Relative fluorescence units (RFUs) were measured using a Synergy H1 plate reader equipped with a 560 nm excitation/590 nm emission filter set (BioTek; Agilent, Santa Clara, CA, USA). Proliferation and metabolic activity in the absence of compounds were defined as 100% (control), and the values for compound-treated samples were expressed as percentages relative to the control. Selectivity indices were calculated by dividing the IC50 value of each compound against HS-5 cells through the IC50 values against the investigated cell lines.
(§2) The Wilcoxon Rank Sum Test was used to analyze proliferation and metabolic activity in the absence and presence of varying compound concentrations (NCSS 2007 software, version 07.1.2, Kaysville, UT, USA). […] IC50 values were calculated using GraphPad Prism 10.1.2. […]

Series [7] deals with HL-60, MOLM-13, AMO-1, and KMS-12 PE cancer cells. The series is described as follows: Proliferation, range over the four tested cancer cell lines. To be noted: HL-60, MOLM-13, AMO-1, KMS-12 PE; read-out: IC50 inhibition of proliferation, range over cell lines. Type of series: cell-based. On the procedure: as §1, with “air.” for “air. Cells were fed twice weekly. Logarithmically growing cells were resuspended at 1 × 10^5 cells/mL, plated in triplicate in round-bottom 96-well plates (100 µL per well; Falcon, Becton Dickinson, Franklin Lakes, NJ, USA), and incubated at 37 °C in 5% CO2/95% air for 2 h.”, “Selectivity indices were calculated by dividing the IC50 value of each compound against HS-5 cells through the IC50 values against the investigated cell lines.” left out

Series [8] relates to B16. The arrangement: method as in PMID 15577239. The conditions noted are these: cited from earlier work.
For series [9], the system named is AMO-1 cells. The series is described as follows: Metabolic activity, resazurin staining, AMO-1. Type of series: cell-based. On the procedure: (§3) Acute myeloid leukemia cell line HL-60 and multiple myeloma cell lines AMO-1 and KMS-12-PE were obtained from the German Collection of Microorganisms and Cell Cultures (DSMZ), Braunschweig, Germany, and non-tumorigenic stromal cell line HS-5 was acquired from the American Type Culture Collection (ATCC, Manassas, VA, USA). All cell lines were cultured in RPMI 1640 medium without phenol red (Pan Biotech, Aidenbach, Germany), supplemented with 2 mM glutamine, 100 U/mL penicillin, 100 µg/mL streptomycin (Sigma-Aldrich, St. Louis, MO, USA), and 10% fetal bovine serum (FBS Maximus, Catus Biotech GmbH, Tutzing, Germany) at 37 °C in a humidified atmosphere of 5% CO2/95% air. Cells were fed twice weekly. Logarithmically growing cells were resuspended at 1 × 10^5 cells/mL, plated in triplicate in round-bottom 96-well plates (100 µL per well; Falcon, Becton Dickinson, Franklin Lakes, NJ, USA), and incubated at 37 °C in 5% CO2/95% air for 2 h. Subsequently, the compounds were adjusted in the cell culture medium to reach the final concentrations in a total volume of 150 µL and incubated for an additional 72 h. Cell proliferation was assessed by [^3H]-thymidine uptake. Each well was exposed to 2 µCi [^3H]-thymidine (Hartmann Analytic, Braunschweig, Germany) during the final 12–16 h of incubation. Cells were harvested using a semi-automated device, and [^3H]-thymidine incorporation (expressed in counts per minute, cpm) was measured with a scintillation counter (MicroBeta TriLux, PerkinElmer, Waltham, MA, USA). Metabolic activity was assessed by resazurin staining. Resazurin (Carl Roth, Karlsruhe, Germany) was dissolved in distilled water at a concentration of 0.1 mg/mL, and 15 µL of this solution was added to each well, followed by a 2 h incubation at 37 °C. Relative fluorescence units (RFUs) were measured using a Synergy H1 plate reader equipped with a 560 nm excitation/590 nm emission filter set (BioTek; Agilent, Santa Clara, CA, USA). Proliferation and metabolic activity in the absence of compounds were defined as 100% (control), and the values for compound-treated samples were expressed as percentages relative to the control. Selectivity indices were calculated by dividing the IC50 value of each compound against HS-5 cells through the IC50 values against the investigated cell lines.
(§4) The Wilcoxon Rank Sum Test was used to analyze proliferation and metabolic activity in the absence and presence of varying compound concentrations (NCSS 2007 software, version 07.1.2, Kaysville, UT, USA). A p-value < 0.05 was considered statistically significant. IC50 values were calculated using GraphPad Prism 10.1.2. This software reports 95% confidence intervals instead of standard errors. […] Nonetheless, the figures clearly illustrate the IC50 values due to the narrow concentration range tested.
(§5) Proliferation inhibition often leads to cell death. Therefore, the cytotoxic activity of the compounds was further evaluated using a modified 3-(4,5-dimethylthiazol-2-yl)-2,5-diphenyltetrazolium bromide (MTT) assay, the resazurin (Alamar Blue) assay. Metabolically active cells reduce the non-fluorescent dye resazurin to the fluorescent dye resorufin via mitochondrial reductase activity, which correlates with cell viability. In the first step the metabolic activity of the four isolated flavonoids was investigated, showing a dose-dependent reduction, but to a much lower extent than in the proliferation assays (Table A2). In fact, only 7,3′,4′-trimethoxymyricetin (2) inhibited the metabolic activity of all four cell lines by more than 50% at a concentration of 100 µM.

The subject of series [10] is KMS-12-PE cells. Put plainly: Proliferation, [3H]-thymidine uptake, KMS-12-PE. Type of series: cell-based. The method, then: as §3, §4
Series [11] has as its system MOLM-13 cells. The series is described as follows: Proliferation, [3H]-thymidine uptake, MOLM-13. Type of series: cell-based. On the procedure: [The source words this procedure for another cell line and reports this cell line under the same test.] as §3, §4
The subject of series [12] is KMS-12-PE cells. Put plainly: Metabolic activity, resazurin staining, KMS-12-PE. Type of series: cell-based. The method, then:
as §3, §4, §5

For series [13], the system named is HL-60 cells. Put plainly: Proliferation, [3H]-thymidine uptake, HL-60. Type of series: cell-based. The method, then: as §3, §4
For series [14], the system named is HL-60, MOLM-13, AMO-1, and KMS-12 PE cancer cells. Put plainly: Metabolic activity, range over the four tested cancer cell lines. The conditions noted are these: HL-60, MOLM-13, AMO-1, KMS-12 PE; read-out: IC50 inhibition of metabolic activity, range over cell lines. Type of series: cell-based. The method, then:
as §1, with “air.” for “air. Cells were fed twice weekly. Logarithmically growing cells were resuspended at 1 × 10^5 cells/mL, plated in triplicate in round-bottom 96-well plates (100 µL per well; Falcon, Becton Dickinson, Franklin Lakes, NJ, USA), and incubated at 37 °C in 5% CO2/95% air for 2 h.”, “Selectivity indices were calculated by dividing the IC50 value of each compound against HS-5 cells through the IC50 values against the investigated cell lines.” left out

Series [15] deals with EOL-1. The arrangement: method as in PMID 29350920. To be noted: cited from earlier work.
For series [16], the system named is HS-5 cells. The series is described as follows: Metabolic activity, resazurin staining, non-malignant HS-5. Type of series: cell-based. To be noted: HS5, HS-5 (non-malignant), 72 h, 95% confidence interval in brackets, read-out: IC50 inhibition of metabolic activity. The method, then: as §1, §2

`C=C(C)C(=O)O[C@H]1C[C@@]2(C)OC(=CC2=O)/C(CO)=C\[C@H]2OC(=O)C(=C)[C@H]12` [Compound 5, goyazensolide]: the IC50 in series [1] was 10000 nM; in series [2] it was 3800 nM; in [3] it was 560 nM; in [5], 630 nM; in series [6] it was 2000 nM; in series [7], 1000 to 1600 nM. Besides, the IC50 is 2080 nM in [8]; 2000 nM in series [9] (Homo sapiens, AMO1, AMO-1, 72 h, resazurin, 95% confidence interval in brackets, read-out: IC50 inhibition of metabolic activity); 1500 nM in [10] (Homo sapiens, KMS-12-PE, 72 h, KMS-12-PE, 72 h, 95% confidence interval in brackets, read-out: IC50 inhibition of proliferation); 1000 nM in series [11] (Homo sapiens, MOLM-13, 72 h, 95% confidence interval in brackets, read-out: IC50 inhibition of proliferation); 1900 nM in [12] (Homo sapiens, KMS-12-PE, 72 h, resazurin, 95% confidence interval in brackets, read-out: IC50 inhibition of metabolic activity); 1100 nM in series [13] (Homo sapiens, HL-60, 72 h, 95% confidence interval in brackets, read-out: IC50 inhibition of proliferation). Besides, the IC50 in [14] was 1000 to 2000 nM; in series [15] it was 1100 nM; in series [16], 2600 nM. For the same compound, the “NF-κB inhibition (in words)” value in [4] is reported as “potent NF-κB inhibitor”. The “Selectivity index (metabolic activity)” value came to 1.3 in series [9] (IC50 HS-5 / IC50 AMO-1) and 1.4 in series [12] (IC50 HS-5 / IC50 KMS-12-PE). Moreover, the “Selectivity index (proliferation)” value in series [10] (IC50 HS-5 / IC50 KMS-12-PE) worked out at 1.3; in series [11] (IC50 HS-5 / IC50 MOLM-13), 2.0; in series [13] (IC50 HS-5 / IC50 HL-60) it was 1.8.

The record behind these values is paper PMC12388523, “Flavonoids and Sesquiterpene Lactones from Lychnophora ericoides (Arnica-Do-Cerrado) and Their In Vitro Effects on Multiple Myeloma and Acute Myeloid Leukemia” (Metabolites, 2025).
